Reference: ChEMBL document CHEMBL3045042, “The discovery of SYP-10913 and SYP-11277: novel strobilurin acaricides” (Pest Manag Sci, 2011)
≈ marks a conversion by molar mass, not a printed value.

Tests used:
Tetranychus cinnabarinus [1] = assay: Acaricidal activity against Tetranychus cinnabarinus (carmine spider mite) in kidney bean leaf assessed as mortality at 40 mg/L measured after 72 hr of spray; format: functional
Tetranychus cinnabarinus [2] = assay: Acaricidal activity against Tetranychus cinnabarinus (carmine spider mite) in kidney bean leaf assessed as mortality at 10 mg/L measured after 72 hr of spray; format: functional
Salmonella typhimurium = assay: Genotoxicity in Salmonella enterica subsp. enterica serovar Typhimurium by Ames test; format: toxicity, organism-based
Tetranychus cinnabarinus [3] = assay: Acaricidal activity against eggs of Tetranychus cinnabarinus (carmine spider mite) in kidney bean leaf assessed as unhatched eggs measured after 120 hr; format: functional
[4] = Acute percutaneous toxicity in Mus musculus (mouse); format: organism-based; conditions: in vivo, topical or ocular
Tetranychus cinnabarinus [5] = assay: Acaricidal activity against Tetranychus cinnabarinus (carmine spider mite) in kidney bean leaf assessed as mortality at 5 mg/L measured after 72 hr of spray; format: functional
Oryctolagus cuniculus [6] = species on record: Oryctolagus cuniculus; assay: Toxicity in Oryctolagus cuniculus (rabbit) assessed as eye irritation; format: organism-based; conditions: in vivo
Oryctolagus cuniculus [7] = species on record: Oryctolagus cuniculus; assay: Toxicity in Oryctolagus cuniculus (rabbit) assessed as skin irritation; format: organism-based; conditions: in vivo
Tetranychus cinnabarinus [8] = assay: Acaricidal activity against nymphs of Tetranychus cinnabarinus (carmine spider mite) in kidney bean leaf assessed as mortality measured after 120 hr; format: functional
[9] = Acute oral toxicity in Mus musculus (mouse); format: organism-based; conditions: in vivo
Tetranychus cinnabarinus [10] = assay: Acaricidal activity against Tetranychus cinnabarinus (carmine spider mite) in kidney bean leaf assessed as mortality at 2.5 mg/L measured after 72 hr of spray; format: functional
Tetranychus cinnabarinus [11] = assay: Acaricidal activity against Tetranychus cinnabarinus (carmine spider mite) in kidney bean leaf assessed as mortality at 1.25 mg/L measured after 72 hr of spray; format: functional

Row | SMILES | mortality at 40 µg/mL (Tetranychus cinnabarinus [1]) [%] | mortality at 10 µg/mL (Tetranychus cinnabarinus [2]) [%] | further results
1 | CO/C=C(/C(=O)OC)c1ccccc1COc1cc(C(F)(F)F)nc(Nc2ccc(C(F)(F)F)cc2)n1 | 0 | 0 | –
2 | CO/C=C(/C(=O)OC)c1ccccc1COc1cc(C(F)(F)F)nc(Nc2ccc(OC)cc2)n1 | 0 | 0 | –
3 | CO/C=C(/C(=O)OC)c1ccccc1COc1cc(C(F)(F)F)nc(Nc2ccc(C)cc2)n1 | 0 | 0 | –
4 | CO/C=C(/C(=O)OC)c1ccccc1COc1cc(C(F)(F)F)nc(Nc2cccc(C)c2)n1 | 90 | 20 | –
5 | CO/C=C(/C(=O)OC)c1ccccc1COc1cc(C(F)(F)F)nc(Nc2ccccc2C)n1 | 100 | 0 | –
6 | CO/C=C(/C(=O)OC)c1ccccc1COc1cc(C(F)(F)F)nc(Nc2ccc(C)cc2C)n1 | 100 | 76 | –
7 | CO/C=C(/C(=O)OC)c1ccccc1COc1cc(C(F)(F)F)nc(Nc2cc(C)ccc2C)n1 | 0 | 0 | –
8 | CO/C=C(/C(=O)OC)c1ccccc1COc1cc(C(F)(F)F)nc(Nc2ccc(C)c(C)c2)n1 | 97 | 20 | –
9 | CO/C=C(/C(=O)OC)c1ccccc1COc1cc(C(F)(F)F)nc(Nc2cccc(Cl)c2Cl)n1 | 100 | 100 | Activity (Salmonella typhimurium): Non-toxic; LC50 (Tetranychus cinnabarinus [3]): 4.75 µg/mL (≈ 8.99 µM); LD50 [4]: ≥ 2150 mg/kg; mortality at 5 µg/mL (Tetranychus cinnabarinus [5]): 99%; Activity (Oryctolagus cuniculus [6]): Toxic; Activity (Oryctolagus cuniculus [7]): Non-toxic; LC50 (Tetranychus cinnabarinus [8]): 0.34 µg/mL (≈ 0.644 µM); LD50 [9]: ≥ 4640 mg/kg; mortality at 2.5 µg/mL (Tetranychus cinnabarinus [10]): 95%; mortality at 1.25 µg/mL (Tetranychus cinnabarinus [11]): 75%
10 | CO/C=C(/C(=O)OC)c1ccccc1COc1cc(C(F)(F)F)nc(Nc2cc(Cl)ccc2Cl)n1 | 100 | 20 | –
11 | CO/C=C(/C(=O)OC)c1ccccc1COc1cc(C(F)(F)F)nc(Nc2c(Cl)cccc2Cl)n1 | 0 | 0 | –
12 | CO/C=C(/C(=O)OC)c1ccccc1COc1cc(C(F)(F)F)nc(Nc2ccc(Cl)c(Cl)c2)n1 | 73 | 0 | –
13 | CO/C=C(/C(=O)OC)c1ccccc1COc1cc(C(F)(F)F)nc(Nc2cc(Cl)cc(Cl)c2)n1 | 0 | 0 | –
14 | CO/C=C(/C(=O)OC)c1ccccc1COc1cc(C(F)(F)F)nc(Nc2ccc(Cl)c(Cl)c2Cl)n1 | 100 | 100 | mortality at 5 µg/mL (Tetranychus cinnabarinus [5]): 100%; mortality at 2.5 µg/mL (Tetranychus cinnabarinus [10]): 98%; mortality at 1.25 µg/mL (Tetranychus cinnabarinus [11]): 75%
15 | CO/C=C(/C(=O)OC)c1ccccc1COc1cc(C(F)(F)F)nc(Nc2cc(Cl)c(Cl)cc2Cl)n1 | 0 | 0 | –
16 | CO/C=C(/C(=O)OC)c1ccccc1COc1cc(C(F)(F)F)nc(Nc2ccc(Cl)c(C)c2Cl)n1 | 100 | 100 | mortality at 5 µg/mL (Tetranychus cinnabarinus [5]): 100%; mortality at 2.5 µg/mL (Tetranychus cinnabarinus [10]): 92%; mortality at 1.25 µg/mL (Tetranychus cinnabarinus [11]): 79%
17 | CO/C=C(/C(=O)OC)c1ccccc1COc1cc(C(F)(F)F)nc(Nc2cccc(Cl)c2C)n1 | 0 | 0 | –
18 | CO/C=C(/C(=O)OC)c1ccccc1COc1cc(C(F)(F)F)nc(Nc2ccc(Cl)cc2C)n1 | 0 | 0 | –
19 | CO/C=C(/C(=O)OC)c1ccccc1COc1cc(C(F)(F)F)nc(Nc2ccc(Cl)cc2)n1 | 0 | 0 | –
20 | CO/C=C(/C(=O)OC)c1ccccc1COc1cc(C(F)(F)F)nc(OC(C)C)n1 [FLUACRYPYRIM] | 100 | 95 | LC50 (Tetranychus cinnabarinus [3]): 5.95 µg/mL (≈ 14 µM); mortality at 5 µg/mL (Tetranychus cinnabarinus [5]): 94%; LC50 (Tetranychus cinnabarinus [8]): 0.64 µg/mL (≈ 1.5 µM); mortality at 2.5 µg/mL (Tetranychus cinnabarinus [10]): 65%; mortality at 1.25 µg/mL (Tetranychus cinnabarinus [11]): 30%
21 | CO/C=C(/C(=O)OC)c1ccccc1COc1cc(C(F)(F)F)nc(Nc2ccc(Cl)cc2Cl)n1 [SYP-11277] | 100 | 100 | LC50 (Tetranychus cinnabarinus [3]): 3.63 µg/mL (≈ 6.87 µM); mortality at 5 µg/mL (Tetranychus cinnabarinus [5]): 100%; LC50 (Tetranychus cinnabarinus [8]): 0.37 µg/mL (≈ 0.7 µM); mortality at 2.5 µg/mL (Tetranychus cinnabarinus [10]): 98%; mortality at 1.25 µg/mL (Tetranychus cinnabarinus [11]): 90%
